Experimental data published in patent US10550095B2, “Cancerous cell growth inhibiting compounds” (WISYS TECHNOLOGY FOUNDATION, INC., priority 2016, dated 2020).
“And” between values parts separate entries of the source, which are not always exact repeats. Identical values can stand only once. “Also recorded” adds a separate entry of the source.

What was measured:
melanoma cells = assay: Mitotic index of melanoma cells (anti-phospho-histone H3 antibody); format: cell-based, mouse; settings: anti-phospho-histone H3 (FIG. 16)
MAPK = assay: Western blot for phosphorylated MAPK in melanoma cells; format: cell-based, mouse; settings: melanoma cells (FIG. 19A)
From the text: We wanted to further understand the molecular mechanism of A11 and its derivatives by examining the activities of MAPK, Akt, and PRPP pathways which regulate cell proliferation and cell death.
MAPK is involved in the major cell proliferation signaling pathway. In many cancer cells, MAPK is activated at high level by phosphorylation. Using the anti-phosphorylated-MAPK (p-MAPK) on western blot, it is very easy to understand the proliferation ability in cells. […] While the results are against our hypothesis and current understanding, it raises a very interesting mechanism of A11 which requires further investigation. […] The current understanding is that activated MAPK and Akt both lead to cell proliferation.

MEK = MEK activity (FIG. 12)
From the text: FIG. 12 are photo illustrations of MEK activity with exemplary embodiments of the human drug treatments of the present invention; and
(§1) The intracellular signaling pathway that involves Raf and MEK is known to be the major pathway to regulate cell proliferation. Many current melanoma drugs such as cobimetinib works by inhibiting Raf or MEK. While they are effective in inhibiting melanoma growth, they exert different degrees of side effect on normal cells by inhibiting the Raf-MEK pathway. […] Also, with regard to FIG. 13, the compound SK-03-92 is shown to inhibit melanoma cell growth by approximately 10% at 10 μM and at 100% at 40 μM.

[1] = test system: primary human melanocytes; assay: Growth of normal melanocytes; format: cell-based
Description: These cells proliferate slowly making it difficult to gather enough cells for experiments with all the A11 analogs. […] In the second experiment, A7 and a few other compounds were evaluated. […] At 10 μM, FSK-03-92 caused near 80% lethality (comparing with the 20% kill by 10 μM FSK-03-92 on melanoma cells in FIG. 14).

MITF [2] = assay: Western blot for MITF protein level in B16-F10 cells; format: cell-based, mouse; settings: western blot vs DMSO control (FIG. 21)
From the text: (§2) To understand how A11 inhibits melanoma proliferation, we examined the MITF expression level in A11-treated B16-F10 cells by western blot and RT-qPCR.

MITF [3] = assay: RT-qPCR of MITF (mit-f) in melanoma cells; format: cell-based, mouse
From the text: as §2
(§3) The results of several qPCR experiments using melanoma cells were compiled in FIG. 20. Pax3 and sox10 are genes determine the melanocyte precursors while mit-f is the specific transcription factor that initiates melanocyte differentiation. Dct and tyr genes are expressed in differentiated melanocytes. […] The decrease in magnitude is not significant likely due to the very heterogeneous cell types in melanoma.

[4] = test system: transgenic melanoma zebrafish embryos; assay: Melanoma formation and recovery in transgenic melanoma zebrafish embryos; format: in vivo
Description: as §1

zebrafish embryos [5] = assay: Skin Lightening Efficacy of All Analogs on Zebrafish Embryos (Table 1); format: in vivo; settings: concentration not given
Description: (§4) The testing protocols for these compounds are as follows: • a. […] The embryos were monitored and imaged throughout their development to track the development of melanin pigment relative to a control group to which water was administered (Protocol 1). • b. […] The embryos were again monitored and imaged throughout their development relative to a control group to which water was administered (Protocol 2). • c. Additionally, to test the ability of the pigment to recover after being treated with our drugs, all embryos were treated at 24 hpf with the chemicals until the 48 hpf or 64 hpf time period, then washed with water to remove the treatment. The embryos were again monitored and imaged throughout their development relative to a control group to which water was administered (Protocol 3).
(§5) The black pigment (or melanin) is very easy to observe in zebrafish. In brief, adult zebrafish are taken to breed embryos. Morphologically normal embryos of 24 hours post fertilization (hpf) stage were selected for incubation in the drugs from 24 to 76 hours. During the incubation, the embryos are monitored and imaged (see FIGS. 1 and 3) to track the development of melanin. […] To broaden the comparison with other skin-whitening products, this project can also test at least three other compounds, Kojic acid, Gallic acid and Haginin. […] In the meantime, the whole organism context also allows us to examine the toxicological profile, if any, of these compounds.

[6] = test system: melanocytes in zebrafish embryos; assay: Mitotic index of melanocytes in zebrafish embryos; format: in vivo; settings: zebrafish embryo (FIG. 17)
Pax3 = assay: RT-qPCR of Pax3 in melanoma cells; format: cell-based, mouse
From the text: as §2, §3

zebrafish embryos [7] = assay: Pigment recovery after compound withdrawal (Protocol 3); format: in vivo; settings: treated 24-48 hpf or 24-64 hpf, then washed, by 72 hpf
Description: (§6) The testing protocols for these compounds are as follows: • a. […] The embryos were monitored and imaged throughout their development to track the development of melanin pigment relative to a control group to which water was administered (Protocol 1). • b. To test the effects of the drugs on existing melanin and/or melanocytes, the embryos were treated with the chemicals at 48 hpf, after pigment had developed. The embryos were again monitored and imaged throughout their development relative to a control group to which water was administered (Protocol 2). • c. Additionally, to test the ability of the pigment to recover after being treated with our drugs, all embryos were treated at 24 hpf with the chemicals until the 48 hpf or 64 hpf time period, then washed with water to remove the treatment. The embryos were again monitored and imaged throughout their development relative to a control group to which water was administered (Protocol 3).
It has been reported that melanin usually reappears after the withdrawal of skin whitening products. […] The pigmentation was monitored closely for 48-72 hours. Similarly, this experiment was repeated at least three times to gain a reproducible result.

[8] = test system: melanocytes in zebrafish embryos; assay: TUNEL assay, melanocyte apoptosis in normal and transgenic melanoma-forming zebrafish embryos; format: in vivo; settings: normal and transgenic melanoma-forming embryos (FIGS. 18A-18B)
[9] = test system: DCT (dopachrome tautomerase); assay: RT-qPCR of DCT in melanoma cells; format: cell-based, mouse
From the text: as §2, §3

zebrafish embryos [10] = assay: Effect on existing melanin and/or melanocytes, embryos treated at 48 hpf (Protocol 2); format: in vivo
Description: as §6
To test the effects of the drugs on existing melanin and/or melanocytes, the embryos were treated with the chemicals A11, MEK-I and PTU at 48 hpf, after pigment had developed. The embryos were again monitored and imaged throughout their development according to Protocol 2.

[11] = test system: dct-expressing cells (differentiated melanocytes); assay: In situ hybridization for the dct gene in zebrafish embryos; format: in vivo; settings: zebrafish embryos (FIG. 22)
From the text: To further understand the mechanism of A11, we examined the development of melanocytes by in situ hybridization for the dct (dopachrome tautomerase) gene which is expressed in differentiated melanocytes.

B16-F10 melanoma cells [12] = assay: Melanin in melanoma cells; format: cell-based, mouse; settings: for Melanin: melanoma cells
From the text: (MEK-I is a known MEK inhibitor as a comparison purchased from Sigma): […]

B16-F10 melanoma cells [13] = assay: cells; format: cell-based
tyrosinase [14] = assay: Effect on tyrosinase expression (FIG. 8)
From the text: FIG. 8 is a graph of the effects of various pigment reducing compositions on tyrosinase expression;
as §1

tyrosinase [15] = assay: RT-qPCR of tyrosinase in melanoma cells; format: cell-based, mouse
From the text: as §2, §3

Akt = assay: Western blot for phosphorylated Akt in melanoma cells; format: cell-based, mouse; settings: western blot (FIG. 19B)
zebrafish embryos [16] = assay: Inhibition of melanin synthesis in zebrafish embryos, treated 24-76 hpf (Protocol 1); format: in vivo; settings: zebrafish embryos treated 24-76 hpf
Description: as §4, §5

Question: With `COc1cc(O)cc(/C=C/Oc2ccccc2C)c1` [Analog A11, 2-Methylphenyl-E-(3-hydroxy-5-methoxy)-styryl Ether] as the compound, how does the “mitotic index of melanoma cells (in words)” value (melanoma cells) read?
Answer: Its value is “significantly lower mitotic index”.

Question: What about the “amount of p-MAPK / MAPK activity (in words)” value (MAPK) of the same compound?
Answer: Its value is “significantly increase the MAPK activity; also recorded: increases the amount of p-MAPK”.

Question: And the “MEK activity (in words)” value (MEK)?
Answer: Its value is “increasing MEK activity”.

Question: And the “toxicity to normal melanocytes (in words)” value [1]?
Answer: The value was “does not seem to cause high toxicity”.

Question: What about the “inhibition of growth of normal melanocytes (in words)” value ([1]; 10 μM) of the same compound?
Answer: Its value is “did not show any inhibition”.

Question: What about the “MITF protein level (in words)” value (MITF [2]) of the same compound?
Answer: Its value is “distinguishably lower”.

Question: What about the “MITF (mit-f) mRNA expression (in words)” value (MITF [3]) of the same compound?
Answer: Its value is “lower amount of MITF mRNA; also recorded: expressed at high level; also recorded: decreases the expression of mit-f gene”.

Question: And the “formation and recovery of melanoma (in words)” value [4]?
Answer: Its value is “inhibited the formation and recovery of melanoma; also recorded: inhibit both the formation of melanoma and the recovery of melanoma”.

Question: What about the Pigmentation (zebrafish embryos [5]) of the same compound?
Answer: Its Pigmentation is 10%.

Question: And the “mitosis / mitotic index of melanocytes (in words)” value [6]?
Answer: Its value is “reduces mitosis”.

Question: And the “Pax3 expression (in words)” value (Pax3)?
Answer: The value was “reduces Pax3 expression”.

Question: And the “pigmentation recovered after wash-off” value (zebrafish embryos [7])?
Answer: The value was 50%.

Question: And the “pigmentation recovered after wash-off” value (zebrafish embryos [7]; listed as A-11)?
Answer: Its value is “approximately 50%”.

Question: What about the “melanocyte apoptosis / cell death (in words)” value [8] of the same compound?
Answer: Its value is “does not induce apoptosis; also recorded: no significant difference”.

Question: What about the “DCT expression (in words)” value [9] of the same compound?
Answer: The value was “decreased”.

Question: And the existing pigment remaining (zebrafish embryos [10])?
Answer: Its existing pigment remaining is 20%.

Question: And the “number of dct-expressing cells (in words)” value [11]?
Answer: Its value is “significantly lower than in the control”.

Question: What about the Melanin (B16-F10 melanoma cells [12]; 2 μM) of the same compound?
Answer: Its Melanin is 99%.

Question: And the Melanin (B16-F10 melanoma cells [12]; 10 μM)?
Answer: The Melanin was 104% and 84% and 97% and 95% and 100%.

Question: What about the Melanin (B16-F10 melanoma cells [12]; 20 μM) of the same compound?
Answer: Its Melanin is 101% and 92%.

Question: What about the Melanin (B16-F10 melanoma cells [12]; 40 μM) of the same compound?
Answer: Its Melanin is 84% and 68% and 56%.

Question: What about the “melanin in B16-F10 cells (in words)” value (B16-F10 melanoma cells [12]; mouse cell line B16-F10) of the same compound?
Answer: The value was “decrease of melanin”.

Question: What about the “Average Melanoma growth (from the previous chart)” value (“Average Melanoma growth” for short) (B16-F10 melanoma cells [13]; 2 μM) of the same compound?
Answer: The value was 86%.

Question: What about the “Average Melanoma growth” value (B16-F10 melanoma cells [13]; 10 μM) of the same compound?
Answer: The value was 88%.

Question: What about the “Average Melanoma growth” value (B16-F10 melanoma cells [13]; 20 μM) of the same compound?
Answer: The value was 81%.

Question: What about the “Average Melanoma growth” value (B16-F10 melanoma cells [13]; 40 μM) of the same compound?
Answer: The value was 50%.

Question: What about the “cell proliferation compared to the control” value (B16-F10 melanoma cells [13]; 40 μM (FIG. 14)) of the same compound?
Answer: The value was 50%.

Question: And the EC50 (B16-F10 melanoma cells [13]; Mus musculus, B16-F10, melanoma cells (FIG. 14), read-out: EC50 in inhibiting melanoma growth)?
Answer: The EC50 was about 40 µM.

Question: What about the “melanoma cell death (in words)” value (B16-F10 melanoma cells [13]; any of the tested concentrations) of the same compound?
Answer: Its value is “no cell death was observed”.

Question: And the “inhibition of melanoma cell growth / cell number (in words)” value (B16-F10 melanoma cells [13]; melanoma cells)?
Answer: Its value is “decrease of melanin as well as the cell number”.

Question: And the Growth (B16-F10 melanoma cells [13]; melanoma cells, 2 μM)?
Answer: Its Growth is 86%.

Question: And the Growth (B16-F10 melanoma cells [13]; melanoma cells, 10 μM)?
Answer: Its Growth is 88% and 92% and 101% and 69%.

Question: What about the Growth (B16-F10 melanoma cells [13]; melanoma cells, 20 μM) of the same compound?
Answer: Its Growth is 81% and 80%.

Question: And the “tyrosinase formation (in words)” value (tyrosinase [14])?
Answer: Its value is “not to inhibit tyrosinase formation”.

Question: And the “tyrosinase expression (in words)” value (tyrosinase [15])?
Answer: The value was “decreased”.

Question: What about the “phosphorylated Akt (in words)” value (Akt) of the same compound?
Answer: The value was “slight increase of phosphorylated Akt”.

Question: And the “pigmentation inhibition (in words)” value (zebrafish embryos [16])?
Answer: Its value is “nearly complete pigmentation loss; also recorded: inhibits pigmentation formation”.

Question: And the Pigmentation (zebrafish embryos [16]; 10 μM)?
Answer: Its Pigmentation is under 5%.
